In article PMC8213057, “Targeting ALK2: An Open Science Approach to Developing Therapeutics for the Treatment of Diffuse Intrinsic Pontine Glioma” (Journal of Medicinal Chemistry, 2020):

What was measured:
ROCK1 = ROCK1 (Homo sapiens, UniProt Q13464); conditions: 1 μM; Run 1, Run 2
TAK1 = target: T1, TAK1 (Homo sapiens, UniProt O43318); experiment: biochemical; conditions: read-out: % enzyme activity, 1 μM; Run 1, Run 2
T1 sequence (O43318 1-303 limits assumed): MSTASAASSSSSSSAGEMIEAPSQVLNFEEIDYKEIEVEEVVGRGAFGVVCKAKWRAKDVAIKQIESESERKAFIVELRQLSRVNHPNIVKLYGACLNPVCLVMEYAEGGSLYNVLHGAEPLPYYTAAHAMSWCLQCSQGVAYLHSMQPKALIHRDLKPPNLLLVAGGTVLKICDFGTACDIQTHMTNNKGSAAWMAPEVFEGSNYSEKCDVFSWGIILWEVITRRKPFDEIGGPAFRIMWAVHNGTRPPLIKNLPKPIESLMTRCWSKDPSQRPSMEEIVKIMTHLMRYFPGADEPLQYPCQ

FGFR2 = FGFR2 (Homo sapiens, UniProt P21802); conditions: 1 μM; Run 1, Run 2
Sequence of FGFR2 (P21802 22-821): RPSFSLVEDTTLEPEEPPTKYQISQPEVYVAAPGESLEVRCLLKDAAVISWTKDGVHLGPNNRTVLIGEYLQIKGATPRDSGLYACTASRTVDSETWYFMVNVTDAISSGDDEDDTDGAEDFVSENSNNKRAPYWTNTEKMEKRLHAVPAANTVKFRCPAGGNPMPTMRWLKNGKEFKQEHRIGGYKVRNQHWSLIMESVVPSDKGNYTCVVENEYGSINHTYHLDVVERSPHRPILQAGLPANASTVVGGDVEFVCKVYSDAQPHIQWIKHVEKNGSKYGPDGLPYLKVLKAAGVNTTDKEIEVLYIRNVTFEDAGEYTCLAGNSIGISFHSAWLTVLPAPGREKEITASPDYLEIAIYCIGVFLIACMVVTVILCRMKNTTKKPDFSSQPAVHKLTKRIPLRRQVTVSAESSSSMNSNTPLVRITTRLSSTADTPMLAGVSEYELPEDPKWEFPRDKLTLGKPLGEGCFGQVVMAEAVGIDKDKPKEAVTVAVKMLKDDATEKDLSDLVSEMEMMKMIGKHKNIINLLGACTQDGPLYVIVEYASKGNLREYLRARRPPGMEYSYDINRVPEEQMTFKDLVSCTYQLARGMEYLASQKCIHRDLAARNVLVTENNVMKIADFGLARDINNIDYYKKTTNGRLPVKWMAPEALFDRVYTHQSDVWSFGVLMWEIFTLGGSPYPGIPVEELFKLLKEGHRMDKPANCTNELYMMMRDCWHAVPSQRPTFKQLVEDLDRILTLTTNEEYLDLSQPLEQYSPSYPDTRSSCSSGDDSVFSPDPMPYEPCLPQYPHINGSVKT

IRAK1 = IRAK1 (Homo sapiens, UniProt P51617); experiment: biochemical; conditions: read-out: % enzyme activity, 1 μM; Run 1, Run 2
Sequence of IRAK1 (P51617 whole entry): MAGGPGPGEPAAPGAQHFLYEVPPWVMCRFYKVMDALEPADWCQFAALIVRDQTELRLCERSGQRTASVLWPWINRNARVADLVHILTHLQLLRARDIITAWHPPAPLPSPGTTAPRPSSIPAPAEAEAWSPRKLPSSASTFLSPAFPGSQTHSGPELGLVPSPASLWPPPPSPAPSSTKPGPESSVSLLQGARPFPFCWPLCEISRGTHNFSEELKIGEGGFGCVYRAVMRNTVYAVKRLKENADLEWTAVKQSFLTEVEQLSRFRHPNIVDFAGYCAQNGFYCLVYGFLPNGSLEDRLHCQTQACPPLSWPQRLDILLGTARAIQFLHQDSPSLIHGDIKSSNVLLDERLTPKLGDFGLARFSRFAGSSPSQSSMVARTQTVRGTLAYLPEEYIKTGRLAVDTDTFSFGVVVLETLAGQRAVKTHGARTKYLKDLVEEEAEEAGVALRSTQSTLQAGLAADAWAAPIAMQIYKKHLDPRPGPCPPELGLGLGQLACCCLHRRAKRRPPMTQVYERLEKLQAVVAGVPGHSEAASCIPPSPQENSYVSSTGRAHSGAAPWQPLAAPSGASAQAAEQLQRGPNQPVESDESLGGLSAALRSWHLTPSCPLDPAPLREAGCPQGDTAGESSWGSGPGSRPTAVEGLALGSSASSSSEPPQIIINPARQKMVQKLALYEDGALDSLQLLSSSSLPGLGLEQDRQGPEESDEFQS

CK1G3 = CK1G3 (Homo sapiens, UniProt Q9Y6M4); experiment: biochemical; conditions: read-out: % enzyme activity, 1 μM; Run 1, Run 2
Sequence of CK1G3 (Q9Y6M4 whole entry): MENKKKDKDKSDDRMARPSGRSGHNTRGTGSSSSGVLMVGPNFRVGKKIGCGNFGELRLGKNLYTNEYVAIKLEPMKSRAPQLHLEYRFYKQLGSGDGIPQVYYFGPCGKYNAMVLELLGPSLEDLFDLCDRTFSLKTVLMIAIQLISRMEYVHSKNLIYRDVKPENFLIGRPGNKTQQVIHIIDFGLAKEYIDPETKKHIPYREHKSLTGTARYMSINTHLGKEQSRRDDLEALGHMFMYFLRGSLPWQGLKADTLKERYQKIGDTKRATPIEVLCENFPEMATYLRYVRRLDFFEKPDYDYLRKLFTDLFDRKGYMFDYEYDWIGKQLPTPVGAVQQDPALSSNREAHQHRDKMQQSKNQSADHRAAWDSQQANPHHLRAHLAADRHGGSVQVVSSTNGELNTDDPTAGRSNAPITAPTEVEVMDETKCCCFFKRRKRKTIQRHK

PYK2 = PYK2 (Homo sapiens, UniProt Q14289); experiment: biochemical; conditions: read-out: % enzyme activity, 1 μM; Run 1, Run 2
CDK17/cyclin Y (PCTK2) = CDK17/cyclin Y (PCTK2) (Homo sapiens, UniProt Q00537); conditions: 1 μM; Run 1, Run 2
CSK = CSK (Homo sapiens, UniProt P41240); experiment: biochemical; conditions: read-out: % enzyme activity, 1 μM; Run 1, Run 2
Sequence of CSK (P41240 whole entry): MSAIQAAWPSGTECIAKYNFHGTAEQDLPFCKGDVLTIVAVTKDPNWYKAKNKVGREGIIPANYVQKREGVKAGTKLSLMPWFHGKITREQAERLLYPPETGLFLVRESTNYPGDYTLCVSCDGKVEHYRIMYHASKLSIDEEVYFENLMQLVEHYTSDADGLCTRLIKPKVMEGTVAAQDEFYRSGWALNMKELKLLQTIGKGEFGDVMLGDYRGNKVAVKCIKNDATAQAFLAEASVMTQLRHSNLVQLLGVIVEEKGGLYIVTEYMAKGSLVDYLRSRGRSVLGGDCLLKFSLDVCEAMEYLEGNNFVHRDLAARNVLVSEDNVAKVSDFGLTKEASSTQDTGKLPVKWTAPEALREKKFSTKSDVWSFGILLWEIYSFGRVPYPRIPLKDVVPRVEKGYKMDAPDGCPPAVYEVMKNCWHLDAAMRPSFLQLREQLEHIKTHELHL

CAMK2b = CAMK2b (Homo sapiens, UniProt Q13554); conditions: 1 μM; Run 1, Run 2
Sequence of CAMK2b (Q13554 whole entry): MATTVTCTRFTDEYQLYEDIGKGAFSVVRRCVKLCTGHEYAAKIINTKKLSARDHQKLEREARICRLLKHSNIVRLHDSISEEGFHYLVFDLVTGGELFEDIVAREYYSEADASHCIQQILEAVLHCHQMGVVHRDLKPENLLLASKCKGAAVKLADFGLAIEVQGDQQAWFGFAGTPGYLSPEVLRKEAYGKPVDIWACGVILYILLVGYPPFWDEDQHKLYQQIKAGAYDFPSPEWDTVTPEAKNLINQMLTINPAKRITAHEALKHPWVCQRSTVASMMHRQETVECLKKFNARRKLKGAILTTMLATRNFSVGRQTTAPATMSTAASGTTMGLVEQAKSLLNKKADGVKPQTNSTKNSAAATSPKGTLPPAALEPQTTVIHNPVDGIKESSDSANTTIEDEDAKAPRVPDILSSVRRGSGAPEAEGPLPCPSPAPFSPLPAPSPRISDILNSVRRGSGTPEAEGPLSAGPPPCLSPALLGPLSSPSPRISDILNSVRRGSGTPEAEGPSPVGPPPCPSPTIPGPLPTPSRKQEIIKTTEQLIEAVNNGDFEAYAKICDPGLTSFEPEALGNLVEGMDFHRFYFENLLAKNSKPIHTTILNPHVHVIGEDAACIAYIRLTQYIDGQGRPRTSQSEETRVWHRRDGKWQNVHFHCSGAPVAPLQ

NEK3 = target: T2, NEK3 (Homo sapiens, UniProt P51956); conditions: 1 μM; Run 1, Run 2
T2 sequence (P51956 1-506): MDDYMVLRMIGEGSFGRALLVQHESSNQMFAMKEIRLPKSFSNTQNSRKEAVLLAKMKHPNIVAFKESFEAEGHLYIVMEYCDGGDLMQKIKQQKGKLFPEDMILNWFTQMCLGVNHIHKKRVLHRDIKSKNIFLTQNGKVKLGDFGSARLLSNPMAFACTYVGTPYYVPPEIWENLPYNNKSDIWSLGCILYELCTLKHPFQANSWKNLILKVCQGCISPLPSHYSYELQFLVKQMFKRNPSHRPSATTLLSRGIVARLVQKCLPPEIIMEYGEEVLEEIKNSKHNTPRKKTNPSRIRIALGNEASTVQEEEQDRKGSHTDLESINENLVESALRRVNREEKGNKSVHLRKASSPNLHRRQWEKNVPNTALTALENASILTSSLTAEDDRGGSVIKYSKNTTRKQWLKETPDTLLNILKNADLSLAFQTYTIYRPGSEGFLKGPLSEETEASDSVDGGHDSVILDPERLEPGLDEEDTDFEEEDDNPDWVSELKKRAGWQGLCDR

FLT3 = target: T3, FLT3 (Homo sapiens, UniProt P36888); experiment: 375-member kinase panel; assay type: biochemical; conditions: Run 1, Run 2; for % enzyme activity: 1 μM; for remaining activity at 1 µM: read-out: % enzyme activity, 1 μM
T3 construct: purchased Reaction Biology Corporation
T3 sequence (P36888 27-993): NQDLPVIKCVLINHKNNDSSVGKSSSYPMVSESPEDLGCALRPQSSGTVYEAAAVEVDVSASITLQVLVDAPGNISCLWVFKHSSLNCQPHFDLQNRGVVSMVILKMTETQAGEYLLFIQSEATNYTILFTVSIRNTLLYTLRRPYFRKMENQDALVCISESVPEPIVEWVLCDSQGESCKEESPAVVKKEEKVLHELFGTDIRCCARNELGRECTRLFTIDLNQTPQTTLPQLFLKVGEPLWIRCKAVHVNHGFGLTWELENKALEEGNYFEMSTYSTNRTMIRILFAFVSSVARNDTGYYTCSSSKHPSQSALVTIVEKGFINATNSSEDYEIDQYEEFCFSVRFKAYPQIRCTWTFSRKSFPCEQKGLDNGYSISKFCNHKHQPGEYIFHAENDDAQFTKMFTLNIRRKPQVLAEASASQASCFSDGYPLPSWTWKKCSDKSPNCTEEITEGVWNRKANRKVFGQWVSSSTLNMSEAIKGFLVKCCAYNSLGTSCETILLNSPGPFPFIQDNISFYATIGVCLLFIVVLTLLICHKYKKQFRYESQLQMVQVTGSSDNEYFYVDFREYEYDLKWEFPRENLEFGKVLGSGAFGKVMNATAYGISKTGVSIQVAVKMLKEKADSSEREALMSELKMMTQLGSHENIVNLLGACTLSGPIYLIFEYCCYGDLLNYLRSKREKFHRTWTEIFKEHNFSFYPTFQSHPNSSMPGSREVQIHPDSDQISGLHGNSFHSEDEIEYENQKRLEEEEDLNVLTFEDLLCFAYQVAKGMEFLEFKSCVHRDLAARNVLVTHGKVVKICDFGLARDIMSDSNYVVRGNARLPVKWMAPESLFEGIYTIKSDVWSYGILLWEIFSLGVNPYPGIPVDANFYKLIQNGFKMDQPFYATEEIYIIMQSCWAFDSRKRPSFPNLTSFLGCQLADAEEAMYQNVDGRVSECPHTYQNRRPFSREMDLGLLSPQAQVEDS

Sequence of ROCK1 (Q13464 whole entry): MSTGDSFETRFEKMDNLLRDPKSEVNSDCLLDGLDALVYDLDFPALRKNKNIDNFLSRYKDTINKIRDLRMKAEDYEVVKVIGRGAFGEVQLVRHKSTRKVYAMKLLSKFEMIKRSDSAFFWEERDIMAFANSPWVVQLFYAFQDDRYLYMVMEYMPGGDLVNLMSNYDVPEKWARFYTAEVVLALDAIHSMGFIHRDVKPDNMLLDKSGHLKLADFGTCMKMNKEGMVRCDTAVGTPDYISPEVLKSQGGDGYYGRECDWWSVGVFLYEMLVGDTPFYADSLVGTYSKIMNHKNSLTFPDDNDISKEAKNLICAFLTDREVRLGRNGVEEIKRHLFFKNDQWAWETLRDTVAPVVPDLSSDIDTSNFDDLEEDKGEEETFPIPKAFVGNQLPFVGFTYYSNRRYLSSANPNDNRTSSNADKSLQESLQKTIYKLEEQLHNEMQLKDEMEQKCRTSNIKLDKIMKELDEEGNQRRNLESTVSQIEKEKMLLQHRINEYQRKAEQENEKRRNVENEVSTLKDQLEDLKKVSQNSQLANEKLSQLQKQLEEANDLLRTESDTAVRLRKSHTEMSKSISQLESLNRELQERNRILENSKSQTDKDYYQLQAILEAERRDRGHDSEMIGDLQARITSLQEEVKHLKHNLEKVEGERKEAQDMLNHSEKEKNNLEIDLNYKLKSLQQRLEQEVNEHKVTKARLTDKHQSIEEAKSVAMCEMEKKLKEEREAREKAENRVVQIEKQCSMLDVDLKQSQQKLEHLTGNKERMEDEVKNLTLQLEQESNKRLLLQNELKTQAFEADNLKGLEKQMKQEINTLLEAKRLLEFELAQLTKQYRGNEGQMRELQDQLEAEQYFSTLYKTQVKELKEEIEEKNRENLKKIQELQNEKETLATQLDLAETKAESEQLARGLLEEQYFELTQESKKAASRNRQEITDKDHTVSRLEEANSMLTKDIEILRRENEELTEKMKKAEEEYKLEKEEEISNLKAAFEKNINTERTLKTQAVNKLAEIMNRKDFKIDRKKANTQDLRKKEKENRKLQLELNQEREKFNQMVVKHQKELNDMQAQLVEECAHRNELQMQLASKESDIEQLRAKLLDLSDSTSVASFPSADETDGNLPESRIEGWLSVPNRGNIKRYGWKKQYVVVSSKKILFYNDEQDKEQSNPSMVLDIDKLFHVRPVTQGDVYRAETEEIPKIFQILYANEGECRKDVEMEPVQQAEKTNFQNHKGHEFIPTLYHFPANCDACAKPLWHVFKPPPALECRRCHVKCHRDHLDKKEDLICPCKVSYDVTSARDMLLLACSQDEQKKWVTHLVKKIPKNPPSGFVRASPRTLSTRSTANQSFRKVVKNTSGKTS

Row | SMILES | % enzyme activity (ROCK1) [%] | remaining activity at 1 µM (TAK1) [%] | % enzyme activity (FGFR2) [%] | remaining activity at 1 µM (IRAK1) [%] | remaining activity at 1 µM (CK1G3) [%] | remaining activity at 1 µM (PYK2) [%] | % enzyme activity (CDK17/cyclin Y (PCTK2)) [%] | remaining activity at 1 µM (CSK) [%] | % enzyme activity (CAMK2b) [%] | % enzyme activity (NEK3) [%] | % enzyme activity (FLT3) [%] | remaining activity at 1 µM (FLT3) [%]
1 | COc1cc(-c2cncc(-c3ccc(N4CCN(C)CC4)cc3)c2C)cc(F)c1C(N)=O [Compound 26a, 2-Fluoro-6-methoxy-4-(4-methyl-5-(4-(4-methylpiperazin-1-yl)phenyl)pyridin-3-yl)benzamide] | 91.98 | 98.5 | 95.46 | 103 | 65.9 | 85.9 | 95.45 | 99.5 | 83.40 | 86.84 | 76.15 | 77.1
2 | COc1cc(-c2cncc(-c3ccc(N4C[C@@H](C)N(C)[C@@H](C)C4)cc3)c2C)cc(F)c1C(N)=O [Compound 26c, 2-Fluoro-6-methoxy-4-(4-methyl-5-(4-((3R,5S)-3,4,5-trimethylpiperazin-1-yl)phenyl)pyridin-3-yl)benzamide] | 92.61 | 99.1 | 90.89 | 98.9 | 78.8 | 88.6 | 99.91 | 104 | 91.32 | 94.54 | 81.48 | 84.3
